Assay results as given in patent publication US20240358777A1, “COMPOSITIONS COMPRISING BACILLUS AMYLOLIQUEFACIENS FOR PREVENTING AND TREATING ULCERATIVE COLITIS” (Artugen Therapeutics Ltd., priority 2021, published 2024).
Values after ≈ are worked out from the molar mass of the structure shown.

Key:
ART24 [1] = experiment: Additional EFSA-recommended MIC studies on ART24 lots and cell banks (Table 7); format: cell-based, Bacillus amyloliquefaciens
Method: The minimum inhibitory concentration (MIC) of the listed antimicrobials is expressed as μg/mL. Additional studies following EFSA testing recommendations were performed on lyophilized ART24 lots CO-33-10A2 and CO-33-12A2 and Research and Master Cell Banks CO-33-ART24 BHI and CO-33-ART24 SYD, and those results are shown in Table 7.

ART24 [2] = experiment: Antibiotic susceptibility of ART24, MIC, VetMIC Lact-1 & Lact-2 panels (Table 6); format: cell-based, Bacillus amyloliquefaciens; conditions: for MIC: Bacillus amyloliquefaciens, read-out: ART24 MIC
Method: The minimum inhibitory concentration (MIC) of the listed antimicrobials is expressed as μg/mL. […] From this suspension 46 μL was transferred in to 23 mL of 90% Iso-Sensitest Broth (CM0473, Oxoid) containing 10% BHI broth to end with a final inoculum concentration of 5×10^5 CFU/mL. The wells of the prefabricated 96-well plates were filled with 100 μL of the final suspension. The plates were sealed with an […], Sigma Aldrich) sealing film (to facilitate growth of the […] strains. The plates were then incubated for 24 hr at 37° C. The results are recorded after 24 hours as the lowest concentration of the antibiotic to inhibit visible growth. The prefabricated panels […], Uppsala, Sweden) comprising the antibiotics ampicillin, vancomycin, gentamicin, kanamycin, streptomycin, erythromycin, clindamycin, tetracycline, chloramphenicol, neomycin, penicillin, quinupristin-dalfopristin, linezolid, trimethoprim, ciprofloxacin and rifampicin were used.

[3] = Bacillus amyloliquefaciens, source CO-33-10A2 (lyophilized lot), read-out: MIC
[4] = Bacillus amyloliquefaciens, source CO-33-12A2 (lyophilized lot), read-out: MIC
[5] = Bacillus amyloliquefaciens, source CO-33 ART 24 BHI, read-out: MIC
[6] = Bacillus amyloliquefaciens, source CO-33 ART 024 SYD, read-out: MIC
[7] = 24 hr at 37° C., average results from N = 6
[8] = source CO-33-10A2 (lyophilized lot)
[9] = source CO-33-12A2 (lyophilized lot)

Row | Compound | MIC (ART24 [1]; [3]) | MIC (ART24 [1]; [4]) | MIC (ART24 [1]; [5]) | MIC (ART24 [1]; [6]) | MIC interpretation (ART24 [1]; source CO-33-10A2) | MIC interpretation (ART24 [1]; source CO-33-12A2) | MIC interpretation (ART24 [1]; source CO-33 ART 24 BHI) | MIC interpretation (ART24 [1]; source CO-33 ART 024 SYD) | MIC (ART24 [2]; [7]) | further results
1 | CC1(C)S[C@@H]2[C@H](NC(=O)[C@H](N)c3ccccc3)C(=O)N2[C@H]1C(=O)O [Ampicillin] | ≤ 0.03 µg/mL | ≤ 0.03 µg/mL | ≤ 0.03 µg/mL | ≤ 0.03 µg/mL | (S) | (S) | (S) | (S) | 0.25 µg/mL (≈ 0.715 µM) | –
2 | O=C(N[C@H](CO)[C@H](O)c1ccc([N+](=O)[O-])cc1)C(Cl)Cl [Chloroamphenicol, Chloramphenicol] | 2 µg/mL (≈ 6.19 µM) | 2 µg/mL (≈ 6.19 µM) | 2 µg/mL (≈ 6.19 µM) | 2 µg/mL (≈ 6.19 µM) | (S) | (S) | (S) | (S) | 4 µg/mL (≈ 12.4 µM) | –
3 | O=C(O)c1cn(C2CC2)c2cc(N3CCNCC3)c(F)cc2c1=O [Ciprofloxacin] | ≤ 0.03 µg/mL | ≤ 0.03 µg/mL | ≤ 0.03 µg/mL | ≤ 0.03 µg/mL | (S) | (S) | (S) | (S) | ≤ 0.25 µg/mL | –
4 | CCC[C@@H]1C[C@@H](C(=O)N[C@@H]([C@H]2O[C@H](SC)[C@H](O)[C@@H](O)[C@H]2O)[C@H](C)Cl)N(C)C1 [Clindamycin] | 0.12 µg/mL (≈ 0.282 µM) | 0.25 µg/mL (≈ 0.588 µM) | 0.25 µg/mL (≈ 0.588 µM) | 0.25 µg/mL (≈ 0.588 µM) | (S) | (S) | (S) | (S) | 0.5 to 1 µg/mL (≈ 1.18 to 2.35 µM) | –
5 | CC[C@H]1OC(=O)[C@H](C)[C@@H](O[C@H]2C[C@@](C)(OC)[C@@H](O)[C@H](C)O2)[C@H](C)[C@@H](O[C@@H]2O[C@H](C)C[C@H](N(C)C)[C@H]2O)[C@](C)(O)C[C@@H](C)C(=O)[C@H](C)[C@@H](O)[C@]1(C)O [Erythromycin] | 0.06 µg/mL (≈ 0.0818 µM) | 0.06 µg/mL (≈ 0.0818 µM) | 0.12 µg/mL (≈ 0.164 µM) | 0.12 µg/mL (≈ 0.164 µM) | (S) | (S) | (S) | (S) | 0.12 µg/mL (≈ 0.164 µM) | –
6 | CCc1c(Cl)c(O)c(Cl)c(O)c1C(=O)O[C@H]1[C@H](O)[C@H](OC)[C@H](OC/C2=C\C=C\C[C@H](O)/C(C)=C/[C@H](CC)[C@@H](O[C@@H]3OC(C)(C)[C@@H](OC(=O)C(C)C)[C@H](O)[C@@H]3O)/C(C)=C/C(C)=C/C[C@@H]([C@@H](C)O)OC2=O)O[C@@H]1C [Fidaxomicin] | 2 µg/mL (≈ 1.89 µM) | 4 µg/mL (≈ 3.78 µM) | 4 µg/mL (≈ 3.78 µM) | 4 µg/mL (≈ 3.78 µM) | – | – | – | – | – | –
7 | NC[C@H]1O[C@H](O[C@H]2[C@H](O)[C@@H](O[C@H]3O[C@H](CO)[C@@H](O)[C@H](N)[C@H]3O)[C@H](N)C[C@@H]2N)[C@H](O)[C@@H](O)[C@@H]1O [Kanamycin] | ≤ 0.5 µg/mL | ≤ 0.5 µg/mL | ≤ 0.5 µg/mL | ≤ 0.5 µg/mL | (S) | (S) | (S) | (S) | ≤ 2 µg/mL | –
8 | CC(=O)NC[C@H]1CN(c2ccc(N3CCOCC3)c(F)c2)C(=O)O1 [Linezolid] | 0.25 µg/mL (≈ 0.741 µM) | 0.5 µg/mL (≈ 1.48 µM) | 0.5 µg/mL (≈ 1.48 µM) | 0.5 µg/mL (≈ 1.48 µM) | – | – | – | – | 0.5 µg/mL (≈ 1.48 µM) | –
9 | Cc1ncc([N+](=O)[O-])n1CCO [Metronidazole] | – | – | – | – | – | – | – | – | – | MIC (ART24 [1]; Bacillus amyloliquefaciens, aerobic, source CO-33-10A2, read-out: MIC): > 64 µg/mL; MIC (ART24 [1]; Bacillus amyloliquefaciens, aerobic, source CO-33-12A2, read-out: MIC): > 64 µg/mL; MIC (ART24 [1]; Bacillus amyloliquefaciens, aerobic, source CO-33 ART 24 BHI, read-out: MIC): > 64 µg/mL; MIC (ART24 [1]; Bacillus amyloliquefaciens, aerobic, source CO-33 ART 024 SYD, read-out: MIC): > 64 µg/mL; MIC (ART24 [1]; Bacillus amyloliquefaciens, anaerobic, source CO-33-10A2, read-out: MIC): 64 µg/mL (≈ 374 µM); MIC (ART24 [1]; Bacillus amyloliquefaciens, anaerobic, source CO-33-12A2, read-out: MIC): 64 µg/mL (≈ 374 µM); MIC (ART24 [1]; Bacillus amyloliquefaciens, anaerobic, source CO-33 ART 24 BHI, read-out: MIC): 64 µg/mL (≈ 374 µM); MIC (ART24 [1]; Bacillus amyloliquefaciens, anaerobic, source CO-33 ART 024 SYD, read-out: MIC): 64 µg/mL (≈ 374 µM)
10 | CO[C@H]1/C=C/O[C@@]2(C)Oc3c(C)c(O)c4c(O)c(c(/C=N/N5CCN(C)CC5)c(O)c4c3C2=O)NC(=O)/C(C)=C\C=C\[C@H](C)[C@H](O)[C@@H](C)[C@@H](O)[C@@H](C)[C@H](OC(C)=O)[C@@H]1C [Rifampicin] | 0.25 µg/mL (≈ 0.304 µM) | 0.25 µg/mL (≈ 0.304 µM) | 0.25 µg/mL (≈ 0.304 µM) | 0.25 µg/mL (≈ 0.304 µM) | (S) | (S) | (S) | (S) | 0.5 µg/mL (≈ 0.608 µM) | –
11 | [H]/N=C(/N)N[C@H]1[C@H](O)[C@@H](O)[C@H](O[C@@H]2O[C@@H](C)[C@](O)(C=O)[C@H]2O[C@@H]2O[C@@H](CO)[C@H](O)[C@@H](O)[C@@H]2NC)[C@@H](N/C(N)=N\[H])[C@@H]1O [Streptomycin] | 1 µg/mL (≈ 1.72 µM) | 1 µg/mL (≈ 1.72 µM) | 1 µg/mL (≈ 1.72 µM) | 2 µg/mL (≈ 3.44 µM) | (S) | (S) | (S) | (S) | 4 µg/mL (≈ 6.88 µM) | –
12 | CN(C)[C@@H]1C(O)=C(C(N)=O)C(=O)[C@@]2(O)C(O)=C3C(=O)c4c(O)cccc4[C@@](C)(O)[C@H]3C[C@@H]12 [Tetracycline] | 2 µg/mL (≈ 4.5 µM) | 2 µg/mL (≈ 4.5 µM) | 2 µg/mL (≈ 4.5 µM) | 2 µg/mL (≈ 4.5 µM) | (S) | (S) | (S) | (S) | 4 µg/mL (≈ 9 µM) | –
13 | COc1cc(Cc2cnc(N)nc2N)cc(OC)c1OC [Trimethoprim] | ≤ 0.25 µg/mL | < 0.25 µg/mL | < 0.25 µg/mL | < 0.25 µg/mL | – | – | – | – | < 0.12 µg/mL | –
14 | CN[C@H](CC(C)C)C(=O)N[C@H]1C(=O)N[C@@H](CC(N)=O)C(=O)N[C@H]2C(=O)N[C@H]3C(=O)N[C@H](C(=O)N[C@H](C(=O)O)c4cc(O)cc(O)c4-c4cc3ccc4O)[C@H](O)c3ccc(c(Cl)c3)Oc3cc2cc(c3O[C@@H]2O[C@H](CO)[C@@H](O)[C@H](O)[C@H]2O[C@H]2C[C@](C)(N)[C@H](O)[C@H](C)O2)Oc2ccc(cc2Cl)[C@H]1O [Vancomycin] | – | – | – | – | (S) | (S) | (S) | (S) | – | MIC (ART24 [1]; Bacillus amyloliquefaciens, source CO-33-10A2 (lyophilized lot)): ≤ 0.25 µg/mL; MIC (ART24 [1]; Bacillus amyloliquefaciens, source CO-33-12A2 (lyophilized lot)): ≤ 0.25 µg/mL; MIC (ART24 [1]; Bacillus amyloliquefaciens, source CO-33 ART 24 BHI): 0.5 µg/mL (≈ 0.345 µM); MIC (ART24 [1]; Bacillus amyloliquefaciens, source CO-33 ART 024 SYD): ≤ 0.25 µg/mL; MIC (ART24 [2]; 24 h): 0.5 to 1 µg/mL (≈ 0.345 to 0.69 µM)
15 | Gentamicin | – | – | – | – | (S) | (S) | (S) | (S) | – | MIC (ART24 [1]; [8]): ≤0.06 µg/mL; MIC (ART24 [1]; [9]): ≤0.06 µg/mL; MIC (ART24 [1]; source CO-33 ART 24 BHI): ≤0.06 µg/mL; MIC (ART24 [1]; source CO-33 ART 024 SYD): ≤0.06 µg/mL; ART24 MIC (ART24 [2]; [7]): ≤0.5 µg/mL
16 | Neomycin | – | – | – | – | – | – | – | – | – | MIC (ART24 [1]; [8]): ≤0.12 µg/mL; MIC (ART24 [1]; [9]): ≤0.12 µg/mL; MIC (ART24 [1]; source CO-33 ART 24 BHI): ≤0.12 µg/mL; MIC (ART24 [1]; source CO-33 ART 024 SYD): ≤0.12 µg/mL; ART24 MIC (ART24 [2]; [7]): ≤0.5 µg/mL
17 | Penicillin | – | – | – | – | (S) | (S) | (S) | (S) | – | MIC (ART24 [1]; [8]): ≤0.03 µg/mL; MIC (ART24 [1]; [9]): ≤0.03 µg/mL; MIC (ART24 [1]; source CO-33 ART 24 BHI): ≤0.03 µg/mL; MIC (ART24 [1]; source CO-33 ART 024 SYD): 0.06 µg/mL; ART24 MIC (ART24 [2]; [7]): 0.12 to 0.5 µg/mL
18 | Quinupristin-dalfopristin | – | – | – | – | – | – | – | – | – | MIC (ART24 [1]; [8]): 1 µg/mL; MIC (ART24 [1]; [9]): 2 µg/mL; MIC (ART24 [1]; source CO-33 ART 24 BHI): 2 µg/mL; MIC (ART24 [1]; source CO-33 ART 024 SYD): 2 µg/mL; ART24 MIC (ART24 [2]; [7]): 4 µg/mL
